Measured values: PMC5198786 (ChemMedChem, 2016)
Where “and” joins values, the source holds several entries; their conditions need not be identical. Equal entries are not always repeated. Entries after “also recorded” stand apart in the source; their conditions may differ. Where two headings read alike, the source gives them in different places.

Experiments:
mAC2 = mAC2 (Homo sapiens, UniProt Q08462); test: mAC assay, HEK293 cells stably expressing AC2; assay type: cell-based; settings: for % of control AC2 / effect on selectively-stimulated cAMP response at AC2 (in words): 30 µM; for % of control AC2: HEK293-AC2, stimulated with 100 nM PMA, ± S.E.M.
Sequence of mAC2 (Q08462 whole entry): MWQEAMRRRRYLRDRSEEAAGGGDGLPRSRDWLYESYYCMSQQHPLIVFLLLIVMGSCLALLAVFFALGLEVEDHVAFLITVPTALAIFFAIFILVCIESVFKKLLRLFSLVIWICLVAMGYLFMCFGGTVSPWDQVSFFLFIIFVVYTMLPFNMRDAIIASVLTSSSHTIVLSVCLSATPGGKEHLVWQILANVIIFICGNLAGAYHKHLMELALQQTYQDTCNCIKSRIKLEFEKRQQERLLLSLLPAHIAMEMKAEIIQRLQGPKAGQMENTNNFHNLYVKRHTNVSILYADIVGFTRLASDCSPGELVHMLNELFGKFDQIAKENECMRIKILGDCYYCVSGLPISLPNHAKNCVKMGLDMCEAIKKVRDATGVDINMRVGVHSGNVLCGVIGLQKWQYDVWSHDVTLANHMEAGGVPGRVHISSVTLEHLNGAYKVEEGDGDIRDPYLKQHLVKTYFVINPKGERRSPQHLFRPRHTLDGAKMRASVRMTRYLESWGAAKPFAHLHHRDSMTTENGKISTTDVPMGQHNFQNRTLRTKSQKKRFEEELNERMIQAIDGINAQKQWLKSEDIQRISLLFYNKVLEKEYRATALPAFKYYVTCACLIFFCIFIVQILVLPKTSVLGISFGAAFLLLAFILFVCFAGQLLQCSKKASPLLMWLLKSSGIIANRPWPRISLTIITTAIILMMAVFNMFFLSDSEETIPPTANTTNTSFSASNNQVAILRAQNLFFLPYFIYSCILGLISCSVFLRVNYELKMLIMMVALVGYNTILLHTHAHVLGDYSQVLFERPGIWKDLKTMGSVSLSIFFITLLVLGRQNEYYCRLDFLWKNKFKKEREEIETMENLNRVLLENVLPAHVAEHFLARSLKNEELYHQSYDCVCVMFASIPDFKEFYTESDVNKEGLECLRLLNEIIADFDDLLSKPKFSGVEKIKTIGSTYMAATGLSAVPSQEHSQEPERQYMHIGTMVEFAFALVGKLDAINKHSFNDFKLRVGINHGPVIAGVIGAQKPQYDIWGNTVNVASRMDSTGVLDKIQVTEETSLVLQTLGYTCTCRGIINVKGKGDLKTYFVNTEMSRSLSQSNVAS

mAC1 = mAC1 (Homo sapiens, UniProt Q08828); test: mAC assay, HEK293 cells stably expressing AC1; assay type: cell-based; settings: for % of control AC1 / effect on selectively-stimulated cAMP response at AC1 (in words): 30 µM; for % of control AC1: HEK293-AC1, stimulated with 3 µM A23187, ± S.E.M.
Sequence of mAC1 (Q08828 whole entry): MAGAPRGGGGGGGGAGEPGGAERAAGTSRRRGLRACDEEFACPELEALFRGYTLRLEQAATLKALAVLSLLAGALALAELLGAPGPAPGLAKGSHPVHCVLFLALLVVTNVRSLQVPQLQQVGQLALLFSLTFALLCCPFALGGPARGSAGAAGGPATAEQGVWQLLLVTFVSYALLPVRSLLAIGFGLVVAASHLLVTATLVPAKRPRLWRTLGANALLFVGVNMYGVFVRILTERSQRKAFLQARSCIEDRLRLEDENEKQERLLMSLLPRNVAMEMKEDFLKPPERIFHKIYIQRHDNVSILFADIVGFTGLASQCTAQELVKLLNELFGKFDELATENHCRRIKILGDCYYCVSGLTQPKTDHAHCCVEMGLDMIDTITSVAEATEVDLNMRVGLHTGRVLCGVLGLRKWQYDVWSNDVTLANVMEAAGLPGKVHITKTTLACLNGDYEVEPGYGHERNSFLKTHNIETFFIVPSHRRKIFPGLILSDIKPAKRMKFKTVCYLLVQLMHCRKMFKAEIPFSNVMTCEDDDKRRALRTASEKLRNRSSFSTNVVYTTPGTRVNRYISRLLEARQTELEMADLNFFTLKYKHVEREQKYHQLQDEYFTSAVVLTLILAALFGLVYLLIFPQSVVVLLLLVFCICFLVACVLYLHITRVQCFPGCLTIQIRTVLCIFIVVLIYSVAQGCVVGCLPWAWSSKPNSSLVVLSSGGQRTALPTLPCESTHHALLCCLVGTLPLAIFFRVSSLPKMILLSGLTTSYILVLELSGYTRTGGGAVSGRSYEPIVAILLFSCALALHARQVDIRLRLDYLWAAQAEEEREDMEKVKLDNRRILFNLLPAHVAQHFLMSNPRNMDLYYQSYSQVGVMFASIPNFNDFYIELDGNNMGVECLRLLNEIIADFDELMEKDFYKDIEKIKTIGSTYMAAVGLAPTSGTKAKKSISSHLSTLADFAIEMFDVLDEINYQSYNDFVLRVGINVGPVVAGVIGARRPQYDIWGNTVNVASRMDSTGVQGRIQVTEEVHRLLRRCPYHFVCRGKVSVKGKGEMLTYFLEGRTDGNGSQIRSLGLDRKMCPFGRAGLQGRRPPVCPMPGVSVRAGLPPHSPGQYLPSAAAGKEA

B. pertussis ACT = B. pertussis ACT (Bordetella pertussis, UniProt P0DKX7); test: cell-based; assay type: cell-based
Sequence of B. pertussis ACT (P0DKX7 whole entry, looked up): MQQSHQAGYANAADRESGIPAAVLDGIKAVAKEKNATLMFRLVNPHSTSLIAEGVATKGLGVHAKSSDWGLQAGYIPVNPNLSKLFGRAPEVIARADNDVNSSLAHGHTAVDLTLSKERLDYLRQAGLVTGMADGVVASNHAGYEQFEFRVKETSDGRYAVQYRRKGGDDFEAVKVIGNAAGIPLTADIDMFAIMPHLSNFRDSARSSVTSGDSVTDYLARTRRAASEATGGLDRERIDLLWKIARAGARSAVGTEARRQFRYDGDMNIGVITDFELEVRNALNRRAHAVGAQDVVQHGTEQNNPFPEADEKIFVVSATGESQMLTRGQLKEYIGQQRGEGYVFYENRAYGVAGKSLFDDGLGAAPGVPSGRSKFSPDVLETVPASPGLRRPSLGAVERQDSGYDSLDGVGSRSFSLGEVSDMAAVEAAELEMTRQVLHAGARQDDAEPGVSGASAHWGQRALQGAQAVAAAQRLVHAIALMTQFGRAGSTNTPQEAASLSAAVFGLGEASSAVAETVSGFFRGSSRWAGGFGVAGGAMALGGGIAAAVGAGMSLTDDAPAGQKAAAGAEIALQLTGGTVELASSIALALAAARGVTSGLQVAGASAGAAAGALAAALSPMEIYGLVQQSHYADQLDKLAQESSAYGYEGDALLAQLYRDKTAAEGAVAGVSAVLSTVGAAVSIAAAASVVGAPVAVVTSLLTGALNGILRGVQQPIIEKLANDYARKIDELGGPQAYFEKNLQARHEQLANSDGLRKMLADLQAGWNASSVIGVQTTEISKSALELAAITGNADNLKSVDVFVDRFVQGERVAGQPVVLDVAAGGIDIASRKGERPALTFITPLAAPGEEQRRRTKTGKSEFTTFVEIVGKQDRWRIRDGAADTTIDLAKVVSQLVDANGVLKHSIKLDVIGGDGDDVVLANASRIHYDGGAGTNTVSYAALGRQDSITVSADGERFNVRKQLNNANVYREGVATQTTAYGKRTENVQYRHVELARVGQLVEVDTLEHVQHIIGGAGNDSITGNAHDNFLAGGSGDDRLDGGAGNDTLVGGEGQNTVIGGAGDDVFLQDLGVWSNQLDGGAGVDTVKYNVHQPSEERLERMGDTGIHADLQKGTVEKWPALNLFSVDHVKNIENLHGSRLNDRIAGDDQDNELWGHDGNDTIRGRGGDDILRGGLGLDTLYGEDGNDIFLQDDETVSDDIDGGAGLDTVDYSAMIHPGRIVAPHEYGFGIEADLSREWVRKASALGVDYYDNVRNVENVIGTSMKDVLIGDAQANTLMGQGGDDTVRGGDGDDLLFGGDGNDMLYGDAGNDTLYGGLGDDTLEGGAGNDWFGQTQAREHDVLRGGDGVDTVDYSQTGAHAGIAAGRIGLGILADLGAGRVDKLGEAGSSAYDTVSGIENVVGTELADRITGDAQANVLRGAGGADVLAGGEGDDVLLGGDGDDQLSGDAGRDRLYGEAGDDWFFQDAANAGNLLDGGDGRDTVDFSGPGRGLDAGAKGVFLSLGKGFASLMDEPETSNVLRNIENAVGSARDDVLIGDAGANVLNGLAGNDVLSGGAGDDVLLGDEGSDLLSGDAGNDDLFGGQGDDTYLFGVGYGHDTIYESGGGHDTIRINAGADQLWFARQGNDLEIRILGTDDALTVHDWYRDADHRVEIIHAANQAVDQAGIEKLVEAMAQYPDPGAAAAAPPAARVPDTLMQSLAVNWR

mAC5 = mAC5 (Homo sapiens, UniProt O95622); test: mAC assay, HEK293 cells stably expressing AC5; assay type: cell-based; settings: for % of control AC5: 30 µM, HEK293-AC5, stimulated with 300 nM forskolin, ± S.E.M.
J774A.1 cells = test: Effect on the viability of J774A.1 cells; assay type: cell-based, murine
edema factor (EF) = edema factor (EF) (Bacillus anthracis, UniProt P40136); test: biochemical
Sequence of edema factor (EF) (P40136 whole entry, looked up): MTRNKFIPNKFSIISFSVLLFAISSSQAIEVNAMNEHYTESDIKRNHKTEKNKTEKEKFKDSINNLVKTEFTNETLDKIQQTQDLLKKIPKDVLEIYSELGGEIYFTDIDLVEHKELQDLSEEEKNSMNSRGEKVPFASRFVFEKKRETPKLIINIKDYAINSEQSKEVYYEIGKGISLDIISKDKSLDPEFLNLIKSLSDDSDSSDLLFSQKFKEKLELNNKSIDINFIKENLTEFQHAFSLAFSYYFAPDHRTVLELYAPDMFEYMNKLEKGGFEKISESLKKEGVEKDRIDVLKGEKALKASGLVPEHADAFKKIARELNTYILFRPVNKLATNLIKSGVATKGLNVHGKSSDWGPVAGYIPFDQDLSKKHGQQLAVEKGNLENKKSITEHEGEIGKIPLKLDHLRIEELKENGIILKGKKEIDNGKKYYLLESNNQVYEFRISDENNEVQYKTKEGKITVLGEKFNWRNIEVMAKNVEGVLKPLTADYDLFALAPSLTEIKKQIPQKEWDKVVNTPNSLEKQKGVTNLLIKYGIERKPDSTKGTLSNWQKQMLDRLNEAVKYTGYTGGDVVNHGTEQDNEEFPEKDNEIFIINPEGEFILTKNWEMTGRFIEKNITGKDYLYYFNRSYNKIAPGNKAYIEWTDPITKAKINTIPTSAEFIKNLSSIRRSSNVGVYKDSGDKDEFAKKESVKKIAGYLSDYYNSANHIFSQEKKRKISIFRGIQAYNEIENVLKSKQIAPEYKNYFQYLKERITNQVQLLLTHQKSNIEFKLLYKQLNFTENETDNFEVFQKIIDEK

[1] = read-out: IC50 ACT inhibition in J774A.1 cells

Row | SMILES | % of control AC2 (mAC2) [%] | % of control AC1 (mAC1) [%] | IC50 (B. pertussis ACT; [1]) | % of control AC5 (mAC5) [%] | also measured
1 | Nc1ccc(Cl)cc1C(=O)NC(CO)Cn1cnc2c(N)ncnc21 (stereo not shown) [Compound 6] | 161±16 | 163±34 | > 15 µM | 98±14 | –
2 | Nc1ncnc2c1ncn2CC(CO)NC(=O)Nc1ccc(Cl)cc1C(=O)O (stereo not shown) [Compound 7, 2-(3-(1-(6-amino-9H-purin-9-yl)-3-hydroxypropan-2-yl)ureido)-5-chlorobenzoic acid] | – | – | – | – | remaining activity at 30 µM (mAC2; HEK293, read-out: % of control AC2): 164 ± 23%; remaining activity at 30 µM (mAC1; HEK293, read-out: % of control AC1): 178 ± 31%; IC50 (B. pertussis ACT): > 15 µM; remaining activity at 30 µM (mAC5; HEK293, read-out: % of control AC5): 110 ± 16%
3 | CC(C)OC(=O)[C@H](Cc1ccccc1)NP(=O)(COCC(Cn1cnc2c(N)ncnc21)NC(=O)c1cc(Cl)ccc1N)N[C@@H](Cc1ccccc1)C(=O)OC(C)C (stereo partly drawn) [Compound 14, Bis(L-phenylalanineisopropyl ester) prodrug of ((3-(6-amino-9H-purin-9yl)-2-N-(5-chloroanthraniloyl)propoxy)methyl)phosphonic acid] | 172±34 | 118±12 | > 15 µM | 121±23 | effect on selectively-stimulated cAMP response at AC2 (in words) (mAC2): slightly potentiated; effect on selectively-stimulated cAMP response at AC1 (in words) (mAC1): slightly potentiated
4 | Nc1ccc(Cl)cc1C(=O)OCC(CO)Cn1cnc2c(N)ncnc21 (stereo not shown) [Compound 20, 9-(3-O-(5-Chloroanthraniloyl)-2-(hydroxymethyl)propyl)adenine] | 146±10 | 122±15 | > 15 µM | 114±18 | –
5 | Nc1ccc(Cl)cc1C(=O)NCC(CO)Cn1cnc2c(N)ncnc21 (stereo not shown) [Compound 22, 9-(3-N-(5-Chloroanthraniloyl)-2-(hydroxymethyl)propyl)adenine] | 149±26 | 156±23 | > 15 µM | 101±5 | –
6 | CC(C)OC(=O)[C@H](Cc1ccccc1)NP(=O)(COCC(COC(=O)c1cc(Cl)ccc1N)Cn1cnc2c(N)ncnc21)N[C@@H](Cc1ccccc1)C(=O)OC(C)C (stereo partly drawn) [Compound 26, Bis(L-phenylalanineisopropyl ester) prodrug of ((3-(6-amino-9H-purin-9yl)-2-(5-chloroanthraniloyloxymethyl)propoxy)methyl)phosphonic acid] | 149±27 | 94±10 | 12 µM and 12.1 µM | 97±11 | cytotoxic effect in J774A.1 cells (J774A.1 cells; 10 µM for 5h): no cytotoxic effect; also recorded: no observed cytotoxic effects; Viability (J774A.1 cells; 10 µM, 5 h, versus untreated control): 110%
7 | CC(C)OC(=O)[C@H](Cc1ccccc1)NP(=O)(COCC(CNC(=O)c1cc(Cl)ccc1N)Cn1cnc2c(N)ncnc21)N[C@@H](Cc1ccccc1)C(=O)OC(C)C (stereo partly drawn) [Compound 29, Bis(L-phenylalanineisopropyl ester) prodrug of ((3-(6-amino-9H-purin-9yl)-2-(5-chloroanthraniloylaminomethyl)propoxy)methyl)phosphonic acid] | 193±48 | 189±15 | > 15 µM | 118±18 | effect on selectively-stimulated cAMP response at AC2 (in words) (mAC2): slightly potentiated; effect on selectively-stimulated cAMP response at AC1 (in words) (mAC1): slightly potentiated
8 | Nc1ncnc2c1ncn2CCOCP(=O)(O)OP(=O)(O)OP(=O)(O)O [PMEApp, Adefovir diphosphate] | – | – | – | – | IC50 (edema factor (EF)): 0.0115 ± 0.0026 µM
9 | Nc1ncnc2c1ncn2C1CCCO1 (stereo not shown) [SQ22536, reference compound] | 84±5 | – | – | 64±1 | –
